Laboratory results as given in US6932961B1, “Oxazinocarbazoles for the treatment of CNS diseases” (Pharmacia & Upjohn Company, priority 2002, dated 2005).
Where a name gives a salt, the structure may show the parent alone.

Tests used:
[1] = molecular target: T1, cloned human 5-HT6 receptor (Homo sapiens, UniProt P50406); test: 5-HT6 receptor binding assay ([3H]-LSD, SPA); settings: membranes of Hela cells containing cloned human 5-HT6 receptor; [3H]-LSD radioligand; Ki from estimated IC50 by Cheng-Prusoff
T1 construct: host or cells: HeLa cells (G-418 selected); membranes prepared from them
T1 sequence (P50406 whole entry): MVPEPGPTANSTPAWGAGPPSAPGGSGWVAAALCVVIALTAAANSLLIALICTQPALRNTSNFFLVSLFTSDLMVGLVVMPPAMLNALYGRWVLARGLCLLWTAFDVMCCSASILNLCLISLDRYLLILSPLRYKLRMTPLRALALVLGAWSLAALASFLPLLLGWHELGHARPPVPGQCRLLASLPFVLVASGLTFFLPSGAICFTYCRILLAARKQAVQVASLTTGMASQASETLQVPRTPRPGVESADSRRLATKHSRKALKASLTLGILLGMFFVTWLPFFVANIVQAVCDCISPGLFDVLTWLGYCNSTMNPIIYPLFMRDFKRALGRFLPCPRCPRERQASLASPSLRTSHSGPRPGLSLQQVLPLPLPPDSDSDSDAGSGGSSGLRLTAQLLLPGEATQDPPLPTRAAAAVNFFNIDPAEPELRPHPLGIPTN
Description: Growth of Cells and Membrane Preparation
Hela cells containing the cloned human 5-HT6 receptor were acquired from Dr. David R. Sibley's laboratory in National Institute of Health (see Sibley, D. R., J. Neurochemistr, 66, 47-56, 1996). Cells were grown in high glucose Dulbecco's modified Eagle's medium, supplemented with L-glutamine, 0.5% sodium pyruvate, 0.3% penicillin-streptomycin, 0.025% G-418 and 5% Gibco fetal bovine serum and then were harvested, when confluent, in cold phosphate buffered saline.
Harvested intact cells were washed once in cold phosphate-buffered saline. The cells were pelleted and resuspended in 100 ml of cold 50 mM Tris, 5 mM EDTA and 5 mM EGTA, pH 7.4. Homogenization was with a Vir Tishear generator, 4 cycles for 30 seconds each at setting 50. The homogenized cells were centrifuged at […] for 10 minutes and the supernatant was removed. The pellet was resuspended in 100 ml of the above buffer and rehomogenized for 2 cycles. The rehomogenized cells were then centrifuged at […] for 10 minutes and the supernatant was removed. The combined supernatant (200 ml) was centrifuged at 23,000 RPM (80,000×g) for 1 hour in a Beckman Rotor (42.1 Ti). […]
The radioligand binding assay used [^3H]-lysergic acid diethylamide (LSD). […] The plates were then loaded into counting cassettes and counted in a Wallac MicroBeta Trilux scintillation counter. […]

CCN(CC)CCOc1cccc2c1c1cccc3c1n2C(c1ccccc1)CO3 (centres unmarked) (as salt: maleic acid salt) [Example 3, N,N-Diethyl-2-[(1-phenyl-1,2-dihydro[1,4]oxazino[2,3,4-jk]carbazol-7-yl)oxy]-1-ethanamine and its maleic acid salt]
melting point: 105 to 107 °C

NCCOc1cccc2c1c1cccc3c1n2[C@H](c1ccccc1)CO3 (as salt: sulfonic acid salt) [Example 2, (R)−)-[(1-Phenyl-1,2-dihydro[1,4]oxazino[2,3,4-jk]carbazol-7-yl)oxy]ethanamine and its methanesulfonic acid salt]
melting point: 236 °C

NCCOc1cccc2c1c1cccc3c1n2[C@H](c1ccccc1)CO3 [Example 2, (R)−)-[(1-Phenyl-1,2-dihydro[1,4]oxazino[2,3,4-jk]carbazol-7-yl)oxy]ethanamine and its methanesulfonic acid salt]
Ki [1]: 1.8 nM

CC(C)NCCOc1cccc2c1c1cccc3c1n2C(c1ccccc1)CO3 (centres unmarked) [Example 5, N-isopropyl-N-{2-[(1-phenyl-1,2-dihydro[1,4]oxazino[2,3,4-jk]carbazol-7-yl)oxy]ethyl}amine and its maleic acid salt]
Ki [1]: 7.8 nM

CCNCCOc1cccc2c1c1cccc3c1n2C(c1ccccc1)CO3.O=C(O)/C=C\C(=O)O (centres unmarked) [Example 6, N-Ethyl-2-[(1-phenyl-1,2-dihydro[1,4]oxazino[2,3,4-jk]carbazol-7-yl)oxy]-ethanamine and its maleic acid salt]
melting point: 105 °C

c1ccc(C2COc3cccc4c5c(OCCN6CCNCC6)cccc5n2c34)cc1 (centres unmarked) [Example 13, 1-Phenyl-1,2-dihydro[1,4]oxazino[2,3,4-jk]carbazol-7-yl 2-(1-piperazinyl)ethyl ether]
melting point: 72 °C

CN1CCN(CCOc2cccc3c2c2cccc4c2n3C(c2ccccc2)CO4)CC1 (centres unmarked) [Example 14, 2-(4-Methyl-1-piperazinyl)ethyl 1-phenyl-1,2-dihydro[1,4]oxazino[2,3,4-jk]carbazol-7-yl ether]
melting point: 57 °C

CN(C)CCOc1cccc2c1c1cccc3c1n2C(c1ccccc1)CO3 (centres unmarked) [Example 18, N,N-dimethyl-2-[(1-phenyl-1,2-dihydro[1,4]oxazino[2,3,4-jk]carbazol-7-yl)oxy]-1-ethanamine]
melting point: 117 to 118 °C
